Numbers after ± are expanded uncertainties.
Details: Liquid, Closed cell (Static) method

Row | SMILES | vapor or sublimation pressure (313.15 K) [kPa] | vapor or sublimation pressure (323.15 K) [kPa] | vapor or sublimation pressure (333.15 K) [kPa] | vapor or sublimation pressure (343.15 K) [kPa] | vapor or sublimation pressure (353.15 K) [kPa] | vapor or sublimation pressure (363.15 K) [kPa] | vapor or sublimation pressure (373.15 K) [kPa] | vapor or sublimation pressure (383.15 K) [kPa] | vapor or sublimation pressure (393.15 K) [kPa] | vapor or sublimation pressure (351.81 K) [kPa] | also measured
1 | Cc1ccc(C)o1 [2,5-dimethylfuran] | 13.94 ± 0.15 | 21.54 ± 0.24 | 32.2 ± 0.35 | 46.74 ± 0.5 | 66.08 ± 0.71 | 91.23 ± 0.98 | 123.28 ± 1.3 | 163.43 ± 1.7 | 212.88 ± 2.3 | – | –
2 | OCc1ccco1 [2-hydroxymethylfuran] | 0.242 ± 0.01 | 0.475 ± 0.02 | 0.89 ± 0.04 | 1.597 ± 0.019 | 2.755 ± 0.03 | 4.588 ± 0.049 | 7.398 ± 0.077 | 11.59 ± 0.12 | 17.68 ± 0.18 | 2.577 ± 0.029 | vapor or sublimation pressure (273.11 K): 0.009 ± 0.001 kPa; vapor or sublimation pressure (283.08 K): 0.022 ± 0.001 kPa; vapor or sublimation pressure (293.16 K): 0.053 ± 0.002 kPa; vapor or sublimation pressure (303.09 K): 0.115 ± 0.003 kPa; vapor or sublimation pressure (323.16 K): 0.471 ± 0.019 kPa; vapor or sublimation pressure (331.87 K): 0.815 ± 0.033 kPa; vapor or sublimation pressure (333.17 K): 0.882 ± 0.036 kPa; vapor or sublimation pressure (341.85 K): 1.479 ± 0.06 kPa; vapor or sublimation pressure (343.19 K): 1.611 ± 0.019 kPa; vapor or sublimation pressure (353.2 K): 2.787 ± 0.031 kPa; vapor or sublimation pressure (362.09 K): 4.368 ± 0.047 kPa; vapor or sublimation pressure (363.2 K): 4.649 ± 0.05 kPa; vapor or sublimation pressure (372.04 K): 7.065 ± 0.074 kPa; vapor or sublimation pressure (382.09 K): 11.09 ± 0.12 kPa; vapor or sublimation pressure (392.15 K): 17.1 ± 0.18 kPa; vapor or sublimation pressure (402.18 K): 25.11 ± 0.26 kPa; vapor or sublimation pressure (412.11 K): 36.53 ± 0.38 kPa
3 | CC(=O)CC(C)C [4-methylpentan-2-one] | 5.882 ± 0.063 | 9.417 ± 0.098 | 14.56 ± 0.15 | 21.82 ± 0.23 | 31.8 ± 0.33 | 45.19 ± 0.46 | 62.78 ± 0.64 | 85.44 ± 0.87 | 114.12 ± 1.2 | 30.29 ± 0.31 | vapor or sublimation pressure (331.98 K): 13.85 ± 0.14 kPa; vapor or sublimation pressure (341.81 K): 20.72 ± 0.21 kPa; vapor or sublimation pressure (362.04 K): 43.51 ± 0.45 kPa; vapor or sublimation pressure (372.03 K): 60.56 ± 0.62 kPa; vapor or sublimation pressure (382.04 K): 82.62 ± 0.85 kPa; vapor or sublimation pressure (392.07 K): 110.74 ± 1.1 kPa

— the NIST ThermoML archive (doi:10.1016/j.jct.2013.10.039)
